Counter-ions that a name gives are not always drawn.
Biological target: T1, human MR (Homo sapiens, UniProt P08235)
T1 construct: The full length human MR gene is cloned from a human kidney or human brain cDNA library; made in house; host or cells: SF9 insect cells (baculovirus)
T1 sequence (P08235 1-984): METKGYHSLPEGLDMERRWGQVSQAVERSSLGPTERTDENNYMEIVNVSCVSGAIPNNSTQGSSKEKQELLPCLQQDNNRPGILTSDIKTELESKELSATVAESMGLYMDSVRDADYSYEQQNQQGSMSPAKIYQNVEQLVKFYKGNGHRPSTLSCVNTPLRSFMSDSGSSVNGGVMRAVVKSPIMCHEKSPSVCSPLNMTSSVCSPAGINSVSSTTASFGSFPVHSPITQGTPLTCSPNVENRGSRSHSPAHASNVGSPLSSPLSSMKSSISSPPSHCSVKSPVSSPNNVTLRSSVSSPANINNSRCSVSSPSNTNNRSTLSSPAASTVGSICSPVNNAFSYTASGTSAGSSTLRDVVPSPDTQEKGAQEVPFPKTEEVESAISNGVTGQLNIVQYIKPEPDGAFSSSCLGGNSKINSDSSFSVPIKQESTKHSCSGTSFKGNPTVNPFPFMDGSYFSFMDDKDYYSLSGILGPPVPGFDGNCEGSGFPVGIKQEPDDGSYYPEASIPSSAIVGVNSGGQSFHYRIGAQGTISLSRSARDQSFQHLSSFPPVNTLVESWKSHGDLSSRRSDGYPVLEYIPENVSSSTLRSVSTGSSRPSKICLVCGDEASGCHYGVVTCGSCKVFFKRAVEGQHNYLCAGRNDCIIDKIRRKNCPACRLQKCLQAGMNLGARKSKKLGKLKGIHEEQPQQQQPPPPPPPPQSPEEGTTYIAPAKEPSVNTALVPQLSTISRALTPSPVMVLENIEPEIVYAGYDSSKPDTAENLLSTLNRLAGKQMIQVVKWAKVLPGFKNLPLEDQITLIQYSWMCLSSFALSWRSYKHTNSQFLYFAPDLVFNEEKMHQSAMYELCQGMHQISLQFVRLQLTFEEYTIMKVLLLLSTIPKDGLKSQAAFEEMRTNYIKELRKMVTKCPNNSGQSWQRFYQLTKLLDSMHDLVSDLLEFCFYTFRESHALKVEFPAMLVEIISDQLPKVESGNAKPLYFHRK
Test: Mineralocorticoid Receptor Binding Assay (Method 1)
Settings: [3H]-aldosterone
Experimental: The full length human MR gene is cloned from a human kidney or human brain cDNA library. Briefly, using synthetic oligonucleotide primers (Eli Lilly and Company, Indianapolis) directed to nucleotides 20-54 and 3700-3666 of the human MR, polymerase chain reaction (PCR) is performed under standard conditions using a human cDNA library. The PCR reaction is performed in a final volume of 50 μl containing about 1 μl of a 50× stock solution of polymerase; about 1 μl of a 50× stock solution of DNTP; about 5 μl of an appropriate PCR buffer; about 1 μl of each primer; about 5 μl of a H. kidney or H. brain cDNA library; and about 36 μl of water. The reaction is allowed to denature for about 30 seconds at 95 degrees Celsius, anneal for about 30 seconds at 55 degrees Celsius, and extend for about 5 minutes at 72 degrees Celsius, the sequence being repeated for a total of about 35 cycles. The desired PCR product (3.68 Kb) is confirmed by gel electrophoresis and subsequently cut from the gel and stored at about −20 degrees Celsius until extraction. To extract the cDNA product from the agarose gel, the QIAEX II Gel Extraction protocol (QIAGEN, Inc.) is employed according to the manufacturer's instructions. Following extraction, the MR cDNA is cloned into an appropriate cloning vector (Zero Blunt TOPO PCR Cloning Kit (Invitrogen, Inc.) and a pAcHLT-baculovirus transfer vector (B.D./Pharminogen), then expressed in SF9 insect cells, essentially according to manufacturer's instructions. Sf9 cells are grown at a scale where gram quantity cell pellets are obtained for subsequent use in the MR binding assay. Harvested cell pellets are lysed by repeated freeze-thaw cycles (about 4) in a suitable lysis buffer then centrifuged at about 1×10^3 G (with the supernatant being saved for future assays).
MR binding assays are performed in a final total volume of about 250 μl containing about 20-25 μg of protein and 0.5 nM of [^3H]-aldosterone plus varying concentrations of test compound or vehicle. The assay binding buffer consists of 30 mM sodium molybdate, 30 mM of TRIS-HCl, 5 mM sodium phosphate, 5 mM sodium pyrophosphate, and about 10% glycerol, pH=7.5.
Briefly, assays are prepared at RT in 96-well Falcon 3072 plates, each well containing 210 μl of binding buffer, 10 μl of [^3H]-aldosterone, 10 μl of test compound/vehicle, and 20 μl of the resuspended receptor protein extract. Incubations are carried out at 4 degrees Celsius with shaking for about 16 hours. 200 μl aliquots of each incubation are filtered onto Millipore HA 0.45 micron 96-well filter plates, pre-moistened with cold 30 mM TRIS-HCl. The filter plates are suctioned dry with vacuum and immediately washed 3× with cold 30 mM TRIS-HCl. The plates are then punched out and the amount of receptor-ligand complex is determined by liquid scintillation counting using 4 ml of Ready Protein Plus™ liquid scintillation cocktail.

Compound | Ki
CC(C)(CN1CCOCC1)n1c(=O)[nH]c2cc(/C=C3\c4ccccc4COc4cc(F)ccc43)ccc21 [Example 1, 1-(1,1-Dimethyl-2-morpholin-4-yl-ethyl)-5-(3-fluoro-6H-dibenzo[b,e]oxepin-11-ylidenemethyl)-1,3-dihydro-benzoimidazol-2-one, E isomer] | < 500 nM
CN1CCC(n2c(=O)[nH]c3cc(/C=C4/c5ccc(F)cc5OCc5c(F)cccc54)ccc32)CC1 [Example 2, 5-(3,7-Difluoro-6H-dibenzo[b,e]oxepine-11-ylidenemethyl)-1-(1-methyl-piperidin-4-yl)-1,3-dihydro-benzoimidazol-2-one, E-isomer] | < 500 nM
CN1CCC(n2c(=O)[nH]c3cc(/C=C4\c5ccccc5COc5cc(F)ccc54)ccc32)CC1 [Example 3, 5-(3-Fluoro-6H-dibenzo[b,e]oxepin-11-ylidenemethyl)-1-(1-methyl-piperidin-4-yl)-1,3-dihydro-benzoimidazol-2-one, E isomer] | < 500 nM
CN1CCN(CCCn2c(=O)[nH]c3cc(/C=C4\c5ccccc5COc5cc(F)ccc54)ccc32)CC1 [Example 7] | < 500 nM
O=c1[nH]c2cc(/C=C3\c4ccccc4COc4cc(F)ccc43)ccc2n1[C@H]1CCNC1 [Example 9] | < 500 nM
C[C@H](CN1CCOCC1)n1c(=O)[nH]c2cc(/C=C3\c4ccccc4COc4cc(F)ccc43)ccc21 [Example 10] | < 500 nM
C[C@@H](CN1CCOCC1)n1c(=O)[nH]c2cc(/C=C3\c4ccccc4COc4cc(F)ccc43)ccc21 [Example 11] | < 500 nM
O=c1[nH]c2cc(/C=C3\c4ccccc4COc4cc(F)ccc43)ccc2n1C1CCNCC1 [Example 12] | < 500 nM
C[C@@H]1CN(CCn2c(=O)[nH]c3cc(/C=C4\c5ccccc5COc5cc(F)ccc54)ccc32)C[C@H](C)O1 [Example 13] | < 500 nM
O=c1[nH]c2cc(/C=C3\c4ccccc4COc4cc(F)ccc43)ccc2n1C1CCNC1 (centres unmarked) [Example 15] | < 500 nM
O=c1[nH]c2cc(/C=C3\c4ccccc4COc4cc(F)ccc43)ccc2n1C1CCNC1 (centres unmarked) [Example 16] | < 500 nM
O=c1[nH]c2cc(/C=C3\c4ccccc4COc4cc(F)ccc43)ccc2n1C1CNC1 [Example 17] | < 500 nM
O=c1[nH]c2cc(/C=C3\c4ccccc4COc4cc(F)ccc43)ccc2n1C[C@@H]1CCCN1 [Example 18] | < 500 nM
O=c1[nH]c2cc(/C=C3\c4ccccc4COc4cc(F)ccc43)ccc2n1C[C@H]1CCCN1 [Example 19] | < 500 nM
O=c1[nH]c2cc(/C=C3\c4ccc(F)cc4COc4cc(F)ccc43)ccc2n1C1CCNCC1 [Example 28] | < 500 nM
O=c1[nH]c2cc(/C=C3\c4ccc(F)cc4COc4cc(F)ccc43)ccc2n1[C@H]1CCNC1 [Example 29] | < 500 nM
O=c1[nH]c2cc(/C=C3\c4ccc(F)cc4COc4cc(F)ccc43)ccc2n1C1CNC1 [Example 30] | < 500 nM
O=c1[nH]c2cc(/C=C3\c4ccc(F)cc4COc4cc(F)ccc43)ccc2n1[C@@H]1CCNC1 [Example 31] | < 500 nM
O=c1[nH]c2cc(/C=C3/c4ccc(F)cc4OCc4c(F)cccc43)ccc2n1C1CCNCC1 [Example 36] | < 500 nM
O=c1[nH]c2cc(/C=C3/c4ccc(F)cc4OCc4c(F)cccc43)ccc2n1[C@H]1CCNC1 [Example 37] | < 500 nM
C[C@H](CN1CCOCC1)n1c(=O)[nH]c2cc(/C=C3/c4ccc(F)cc4OCc4c(F)cccc43)ccc21 [Example 38] | < 500 nM
C[C@@H](CN1CCOCC1)n1c(=O)[nH]c2cc(/C=C3/c4ccc(F)cc4OCc4c(F)cccc43)ccc21 [Example 39] | < 500 nM
CC(C)(CN1CCOCC1)n1c(=O)[nH]c2cc(/C=C3/c4ccc(F)cc4OCc4c(F)cccc43)ccc21 [Example 40] | < 500 nM
C[C@@H]1CN(CCn2c(=O)[nH]c3cc(/C=C4/c5ccc(F)cc5OCc5c(F)cccc54)ccc32)C[C@H](C)O1 [Example 41] | < 500 nM
O=c1[nH]c2cc(/C=C3/c4ccc(F)cc4OCc4c(F)cccc43)ccc2n1CCCN1CCOCC1 [Example 42] | < 500 nM

Now from value to compound:

Ki | Compound
< 500 nM | CN1CCC(n2c(=O)[nH]c3cc(/C=C4\c5ccc(F)cc5COc5cc(F)ccc54)ccc32)CC1 [Example 4, 5-(3,8-Difluoro-6H-dibenzo[b,e]oxepin-11-ylidenemethyl)-1-(1-methyl-piperidin-4-yl) -1,3-dihydro-benzoimidazol-2-one, E isomer]
< 500 nM | CCN1CC[C@@H](n2c(=O)[nH]c3cc(/C=C4\c5ccc(F)cc5COc5cc(F)ccc54)ccc32)C1 [Example 5, 5-(3,8-Difluoro-6H-dibenzo[b,e]oxepin-11-ylidenemethyl)-1-(1-ethyl-pyrrolidin-3-yl) -1,3-dihydro-benzoimidazol-2-one, HOAc salt, E isomer, chiral]
< 500 nM | CN1CCN(CCn2c(=O)[nH]c3cc(/C=C4\c5ccccc5COc5cc(F)ccc54)ccc32)CC1 [Example 8]
< 500 nM | O=c1[nH]c2cc(/C=C3\c4ccccc4COc4cc(F)ccc43)ccc2n1CCN1CCNCC1 [Example 14]
< 500 nM | CN1CCN(CCn2c(=O)[nH]c3cc(/C=C4\c5ccc(F)cc5COc5cc(F)ccc54)ccc32)CC1 [Example 20]
< 500 nM | O=c1[nH]c2cc(/C=C3\c4ccc(F)cc4COc4cc(F)ccc43)ccc2n1CCN1CCCC1 [Example 21]
< 500 nM | C[C@H](CN1CCOCC1)n1c(=O)[nH]c2cc(/C=C3\c4ccc(F)cc4COc4cc(F)ccc43)ccc21 [Example 22]
< 500 nM | C[C@@H](CN1CCOCC1)n1c(=O)[nH]c2cc(/C=C3\c4ccc(F)cc4COc4cc(F)ccc43)ccc21 [Example 23]
< 500 nM | CC(C)(CN1CCOCC1)n1c(=O)[nH]c2cc(/C=C3\c4ccc(F)cc4COc4cc(F)ccc43)ccc21 [Example 24]
< 500 nM | C[C@@H]1CN(CCn2c(=O)[nH]c3cc(/C=C4\c5ccc(F)cc5COc5cc(F)ccc54)ccc32)C[C@H](C)O1 [Example 25]
< 500 nM | O=c1[nH]c2cc(/C=C3\c4ccc(F)cc4COc4cc(F)ccc43)ccc2n1CCCN1CCOCC1 [Example 26]
< 500 nM | CN1CC[C@H](n2c(=O)[nH]c3cc(/C=C4\c5ccc(F)cc5COc5cc(F)ccc54)ccc32)C1 [Example 32]
< 500 nM | CCN1CC[C@H](n2c(=O)[nH]c3cc(/C=C4\c5ccc(F)cc5COc5cc(F)ccc54)ccc32)C1 [Example 33]
< 500 nM | CN1CCN(CCn2c(=O)[nH]c3cc(/C=C4/c5ccc(F)cc5OCc5c(F)cccc54)ccc32)CC1 [Example 34]
< 500 nM | O=c1[nH]c2cc(/C=C3/c4ccc(F)cc4OCc4c(F)cccc43)ccc2n1CCN1CCCC1 [Example 35]
< 500 nM | O=c1[nH]c2cc(/C=C3/c4ccc(F)cc4OCc4c(F)cccc43)ccc2n1CCN1CCNCC1 [Example 43]
